Source: PubChem BioAssay AID2060511 (Molecular Pharmacology Branch, DTP, NCI, 2025)

Tested on: 422866-222-R5-J1-PDC spheroids with HUVEC/MSC, viability
Test: Anticancer human tumor 422866-222-R5-J1-PDC patient-derived pancreatic adenocarcinoma cell line growth inhibition [GQUAD]
Conditions: for IC50: curve of first compound; for viability, T/C: stronger effect = lower value
Procedure, shortened: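 Viability of tumor cells grown as complex spheroids with endothelial and stromal cells, exposed to drug combinations. Top concentration at or near clinical Cmax (else 10 microM), diluted in half-log increments.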
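Note: spheroids exposed to compounds for seven days before reading.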
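Throughout, for viability, T/C: percent viability relative to DMSO vehicle control taken as 100%.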

COc1cccc2c1C(=O)c1c(O)c3c(c(O)c1C2=O)CC(O)(C(=O)CO)CC3OC1CC(N)C(O)C(C)O1 (configuration not stated) + CN(C)c1ccc(Nc2c3ccc(NC(=O)CCN4CCCC4)cc3nc3cc(NC(=O)CCN4CCCC4)ccc23)cc1
IC50 (second compound 0.0316 µM): 596 nM | IC50 (second compound 0.1 µM): 613 nM | IC50 (second compound 0.316 µM): 900 nM | IC50 (second compound 1 µM): 760 nM | IC50 (second compound 3.16 µM): 562 nM | IC50 (second compound 10 µM): 1000 nM | viability, T/C (second compound 0.0316 µM, first compound 0.0316 µM): 95.2% | viability, T/C (second compound 0.0316 µM, first compound 0.1 µM): 66.8% | viability, T/C (second compound 0.0316 µM, first compound 0.316 µM): 64.3% | viability, T/C (second compound 0.0316 µM, first compound 1 µM): 42.9% | viability, T/C (second compound 0.0316 µM, first compound 3.16 µM): 32% | viability, T/C (second compound 0.0316 µM, first compound 10 µM): 32.3% | viability, T/C (second compound 0.1 µM, first compound 0.0316 µM): 103% | viability, T/C (second compound 0.1 µM, first compound 0.1 µM): 73% | viability, T/C (second compound 0.1 µM, first compound 0.316 µM): 56.8% | viability, T/C (second compound 0.1 µM, first compound 1 µM): 48.8% | viability, T/C (second compound 0.1 µM, first compound 3.16 µM): 33.9% | viability, T/C (second compound 0.1 µM, first compound 10 µM): 37.9% | viability, T/C (second compound 0.316 µM, first compound 0.0316 µM): 89.5% | viability, T/C (second compound 0.316 µM, first compound 0.1 µM): 66.3% | viability, T/C (second compound 0.316 µM, first compound 0.316 µM): 65.7% | viability, T/C (second compound 0.316 µM, first compound 1 µM): 48.3% | viability, T/C (second compound 0.316 µM, first compound 3.16 µM): 37.8% | viability, T/C (second compound 0.316 µM, first compound 10 µM): 37.5% | viability, T/C (second compound 1 µM, first compound 0.0316 µM): 72.2% | viability, T/C (second compound 1 µM, first compound 0.1 µM): 59.5% | viability, T/C (second compound 1 µM, first compound 0.316 µM): 55.5% | viability, T/C (second compound 1 µM, first compound 1 µM): 51% | viability, T/C (second compound 1 µM, first compound 3.16 µM): 40.4% | viability, T/C (second compound 1 µM, first compound 10 µM): 33% | viability, T/C (second compound 3.16 µM, first compound 0.0316 µM): 74.3% | viability, T/C (second compound 3.16 µM, first compound 0.1 µM): 68.5% | viability, T/C (second compound 3.16 µM, first compound 0.316 µM): 56% | viability, T/C (second compound 3.16 µM, first compound 1 µM): 44.8% | viability, T/C (second compound 3.16 µM, first compound 3.16 µM): 35.1% | viability, T/C (second compound 3.16 µM, first compound 10 µM): 36.5% | viability, T/C (second compound 10 µM, first compound 0.0316 µM): 93% | viability, T/C (second compound 10 µM, first compound 0.1 µM): 69.4% | viability, T/C (second compound 10 µM, first compound 0.316 µM): 65.9% | viability, T/C (second compound 10 µM, first compound 1 µM): 48.1% | viability, T/C (second compound 10 µM, first compound 3.16 µM): 41.1% | viability, T/C (second compound 10 µM, first compound 10 µM): 33%
